What all share (assay type): cell-based
For assay [1], the system named is human cervical adenocarcinoma cell line (HeLa S3). The experiment in a line: MTT assay. Conditions: 24 h incubation at 37 °C, six replicates per concentration, repeated at least twice. The method, then: (§1) To assess the cytotoxicity of the test lipopeptides (IC50), the classic MTT assay on 96-well polystyrene plates was performed for human keratinocytes (HaCaT) and human cervical adenocarcinoma cell line (HeLa S3) acquired from the ATCC. The assay utilizes colorimetric determination of the cell metabolic activity and the color intensity reflects the number of live cells that can be measured spectrophotometrically. The cell line was cultured in a Dulbecco’s modified Eagle Medium (Invitrogen) supplemented with 10% fetal bovine serum (v/v), 100 units/mL of penicillin, 100 μg/mL of streptomycin, and 2 mM l-glutamine and was stored at 37 °C in a humidified 5% CO2 incubator. Briefly, a day after plating of 500 cells per well, a series of concentrations (0.1–200 μg/mL) of the test compounds were applied. DMSO was added to the control cells at a final concentration of 1.0% (v/v), which was related to the maximal concentration of the solvent compounds used in the experiment. After 24 h of incubation with the lipopeptides at 37 °C in a humidified 5% CO2 incubator, a medium containing 1 mg/mL of MTT (3-(4,5-dimethylthiazol-2-yl)-2,5-diphenyltetrazolium bromide) was added to the wells up to a final concentration of 0.5 mg/mL. Subsequently, the plates were incubated at 37 °C for 4 h. Then, the medium was removed by suction, and the formazan product was solubilized with DMSO. The background absorbance at 630 nm was subtracted from that at 570 nm for each well (Epoch, BioTek Instruments, Winooski, VT, USA). Six replicates were conducted for each concentration. All experiments were repeated at least twice and the resulting IC50 values were calculated with a GraFit 7 software (v. 7.0, Erithacus, Berkley, CA, USA).
(In general: Tetrazolium dyes change colour on reduction, which living cells bring about.)

Assay [2] concerns human keratinocytes (HaCaT). The experiment in a line: MTT assay. Conditions: 24 h incubation at 37 °C, six replicates per concentration, repeated at least twice. On the procedure: as §1
Assay [3] relates to Candida lipolytica PCM 2680-FY. Conditions: 24 h. On the procedure: (§2) The Staphylococcus aureus ATCC 25923, Staphylococcus epidermidis ATCC 14990, Escherichia coli ATCC 25922, Pseudomonas aeruginosa ATCC 9027, Candida albicans ATCC 10231, Candida glabrata ATCC 15126, Candida lipolytica PCM 2680-FY, and Candida tropicalis PCM 2709-FY strains were acquired from the Polish Collection of Microorganisms (PCM, Polish Academy of Sciences, Wrocław, Poland) and from the American Type Culture Collection (ATCC). All the strains were stored at −80 °C in Roti-Store cryo vials and before the tests were transferred into fresh Mueller–Hinton broth (MHB, Biocorp, Warsaw, Poland) for bacteria or RPMI-1640 (Sigma-Aldrich, Steinheim, Germany) for fungi and incubated for 24 h at 37 °C. Then, the cultures were seeded on Mueller–Hinton agar (BioMaxima, Lublin, Poland) or Sabouraud dextrose agar (SDA, BioMaxima, Lublin, Poland) plates, respectively, and incubated as just mentioned. These agar cultures were used for further microbiological assays. Cell densities for all assays were adjusted spectrophotometrically (Multiskan GO Microplate Spectrophotometer, Thermo Fisher Scientific, Vantaa, Finland) at 600 and 660 nm for bacteria and fungi, respectively.
(§3) MBECs were determined on 96-well polystyrene flat-bottom plates. For this purpose, 24 h cultures of microorganisms were diluted to obtain final density 5.0 × 10^5 CFU/mL and 2.0 × 10^5 CFU/mL of bacteria and fungi, respectively. Briefly, 100 µL of cell suspension was added into the test plates. After 24 h of incubation at 37 °C the wells were rinsed three times with a phosphate buffer saline (PBS, pH 7.4) to remove non-adherent cells. Subsequently, 100 μL of the test compounds in concentration range (0.5–256 μg/mL) were added to each well. After 24 h of incubation at 37 °C, 20 μL of a cell viability reagent was added (resazurin, 4 g/L; Sigma Aldrich, St. Louis, MO, USA). The MBEC was read after 1 h. The determined values were recorded as the lowest concentration at which the reduction of resazurin (from blue to pink) was lower or equal to 10 ± 0.5% as compared to the positive (100%) and negative (0%) controls. The reduction was monitored by measuring absorbance at 570 nm (reduced) and 600 nm (oxidized) using a microplate spectrophotometer (Multiskan GO Microplate Spectrophotometer, Thermo Fisher Scientific, Vantaa, Finland). All experiments were conducted in triplicate.

Assay [4] concerns Pseudomonas aeruginosa ATCC 9027. To be noted: ATCC 9027, 24 h. On the procedure: as §2, §3
Assay [5] relates to Staphylococcus epidermidis ATCC 14990. Conditions: ATCC 14990, 24 h. On the procedure:
as §2, §3

Assay [6] relates to Candida albicans ATCC 10231. To be noted: ATCC 10231, 24 h. The method, then:
as §2, §3

Assay [7] deals with Candida tropicalis PCM 2709-FY. Conditions: PCM 2709-FY, 24 h. On the procedure:
as §2, §3

Assay [8] concerns Candida glabrata ATCC 15126. To be noted: ATCC 15126, 24 h. The method, then: as §2, §3
Assay [9] has as its system Escherichia coli ATCC 25922. To be noted: ATCC 25922, 24 h. On the procedure: as §2, §3
Assay [10] relates to Candida lipolytica PCM 2680-FY. Conditions: 24 h. The method, then:
as §2
(§4) The MICs were determined by broth microdilution method according to the Clinical and Laboratory Standard Institute guidelines For this purpose, initial inoculums of bacteria (5 × 10^5 CFU/mL) in MHB and yeasts (2 × 10^3 CFU/mL) in RPMI-1640 with 2% D-glucose were exposed to the ranging concentration of lipopeptides (0.5–256 μg/mL) and incubated at 37 °C for 18 h and 24 h, respectively. The experiments were conducted on 96-well microtiter polystyrene plates. The growth was assessed visually after incubation and the MIC was assumed as the lowest peptide concentration at which a noticeable growth of microorganisms was inhibited. All experiments were conducted in triplicate.
The source holds these as a separate data set.

For assay [11], the system named is Staphylococcus epidermidis ATCC 14990. To be noted: ATCC 14990, 18 h. The method, then:
as §2, §4

For assay [12], the system named is Candida albicans ATCC 10231. To be noted: ATCC 10231, 24 h. On the procedure: as §2, §4
This is another data set of the same source.

Assay [13] deals with Candida tropicalis PCM 2709-FY. To be noted: PCM 2709-FY, 24 h. The method, then:
as §2, §4
The source holds these as a separate data set.

The subject of assay [14] is Candida glabrata ATCC 15126. Conditions: ATCC 15126, 24 h. On the procedure:
as §2, §4
The source holds these as a separate data set.

In assay [15] the test system is Escherichia coli ATCC 25922. Conditions: ATCC 25922, 18 h. The method, then: as §2, §4
Assay [16] has as its system Pseudomonas aeruginosa ATCC 9027. Conditions: ATCC 9027, 18 h. On the procedure: as §2, §4

≈ marks a conversion by molar mass, not a printed value. Where a SMILES comes first, the peptide text is derived from it. Bridges are numbered along the chain shown (N, C = ends). The star is where a group is joined. Palmitoyl = CCCCCCCCCCCCCCCC(=O)*

For `CCCCCCCCCCCCCCCC(=O)N[C@H]1CSSC[C@@H](C(N)=O)NC(=O)[C@H](CCCCN)NC(=O)[C@H](CCCCN)NC(=O)[C@H](CCCCN)NC(=O)[C@H](CCCNC(=N)N)NC1=O` [C3, C16-CRKKKC-NH2] (Palmitoyl-CRKKKC-NH2; disulfide 1-6), the “HeLa IC50” value in assay [1] stood at 38.8 ± 4.4 µg/mL. Also, in assay [2], the “HaCaT IC50” value was found to be 36.8 ± 2.7 µg/mL. The “MBEC C. lipolytica” value in assay [3] was determined as 16 µg/mL. Also, in assay [4], the “MBEC P. aeruginosa” value worked out at 256 µg/mL. In addition, in [5], the “MBEC S. epidermidis” value turned out to be 128 µg/mL. The “MBEC C. albicans” value in assay [6] was found to be 32 µg/mL. Further, the “MBEC C. tropicalis” value in assay [7] was 32 µg/mL. Also, the “MBEC C. glabrata” value in assay [8] worked out at 32 µg/mL. Also, the “MBEC E. coli” value in [9] was 256 µg/mL. Further, the “MIC C. lipolytica” value in assay [10] amounted to 4 µg/mL (≈ 4 µM). Also, the “MIC S. epidermidis” value in [11] is 8 µg/mL (≈ 8 µM). Moreover, the “MIC C. albicans” value in assay [12] was 2 µg/mL (≈ 2 µM). Further, the “MIC C. tropicalis” value in assay [13] stood at 2 µg/mL (≈ 2 µM). Besides, the “MIC C. glabrata” value in assay [14] worked out at 8 µg/mL (≈ 8 µM). In addition, in assay [15], the “MIC E. coli” value stood at 16 µg/mL (≈ 16 µM).
`CCCCCCCCCCCCCCCC(=O)N[C@H]1CSSC[C@@H](C(N)=O)NC(=O)[C@H](CCCCN)NC(=O)[C@H](CCCCN)NC(=O)[C@H](CCCNC(=N)N)NC(=O)[C@H](CCCCN)NC1=O` [C4, C16-CKRKKC-NH2] (Palmitoyl-CKRKKC-NH2; disulfide 1-6): the “HeLa IC50” value in assay [1] came to 27.5 ± 3.4 µg/mL. For the same compound, the “HaCaT IC50” value in assay [2] was found to be 33.8 ± 3.1 µg/mL. For the same compound, the “MBEC C. lipolytica” value in assay [3] was found to be 16 µg/mL. Also, the “MBEC P. aeruginosa” value in assay [4] was over 256 µg/mL. The “MBEC S. epidermidis” value in assay [5] came out at 32 µg/mL. Further, in assay [6], the “MBEC C. albicans” value came to 32 µg/mL. The “MBEC C. tropicalis” value in [7] is 32 µg/mL. In addition, in [8], the “MBEC C. glabrata” value turned out to be 64 µg/mL. Moreover, the “MBEC E. coli” value in [9] came out at 64 µg/mL. For the same compound, the “MIC C. lipolytica” value in assay [10] is 1 µg/mL (≈ 1 µM). Further, the “MIC P. aeruginosa” value in assay [16] came out at 256 µg/mL (≈ 256 µM). Besides, the “MIC S. epidermidis” value in assay [11] was determined as 8 µg/mL (≈ 8 µM). Further, the “MIC C. albicans” value in assay [12] is 2 µg/mL (≈ 2 µM). The “MIC C. tropicalis” value in assay [13] is 2 µg/mL (≈ 2 µM). The “MIC C. glabrata” value in assay [14] turned out to be 4 µg/mL (≈ 4 µM). For the same compound, the “MIC E. coli” value in [15] was determined as 32 µg/mL (≈ 32 µM).
Consider `CCCCCCCCCCCCCCCC(=O)N[C@H]1CSSC[C@@H](C(N)=O)NC(=O)[C@H](CCCCN)NC(=O)[C@H](CCCNC(=N)N)NC(=O)[C@H](CCCCN)NC(=O)[C@H](CCCCN)NC1=O` [C5, C16-CKKRKC-NH2] (Palmitoyl-CKKRKC-NH2; disulfide 1-6), for which the “HeLa IC50” value in assay [1] came out at 21.9 ± 4.5 µg/mL. The “HaCaT IC50” value in assay [2] came to 12.9 ± 4.6 µg/mL. In addition, the “MBEC C. lipolytica” value in assay [3] was 16 µg/mL. Also, in assay [4], the “MBEC P. aeruginosa” value stood at 256 µg/mL. The “MBEC S. epidermidis” value in assay [5] came out at 64 µg/mL. Moreover, the “MBEC C. albicans” value in assay [6] was 64 µg/mL. For the same compound, the “MBEC C. tropicalis” value in [7] was determined as 32 µg/mL. Moreover, the “MBEC C. glabrata” value in assay [8] was determined as 64 µg/mL. Moreover, the “MBEC E. coli” value in [9] came out at 128 µg/mL. Also, the “MIC C. lipolytica” value in assay [10] was determined as 4 µg/mL (≈ 4 µM). The “MIC P. aeruginosa” value in assay [16] was 256 µg/mL (≈ 256 µM). Besides, the “MIC S. epidermidis” value in [11] was found to be 4 µg/mL (≈ 4 µM). Also, in [12], the “MIC C. albicans” value is 16 µg/mL (≈ 16 µM). Besides, in assay [13], the “MIC C. tropicalis” value amounted to 4 µg/mL (≈ 4 µM). For the same compound, the “MIC C. glabrata” value in [14] came out at 8 µg/mL (≈ 8 µM). For the same compound, in [15], the “MIC E. coli” value turned out to be 16 µg/mL (≈ 16 µM).

Values taken from article PMC7582905, “Effect of Disulfide Cyclization of Ultrashort Cationic Lipopeptides on Antimicrobial Activity and Cytotoxicity” (International Journal of Molecular Sciences, 2020).
